Test results: ChEMBL document CHEMBL1201862, “PubChem BioAssay data set” (2004)
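Tested at 5 concentrations; 48 h exposure; 96-well plates; endpoints linearly interpolated, else capped at highest concentration. The concentration for 50% growth inhibition is given as GI50.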 Activity calls are given as the source filed them. Cut-off read from the data, not from the text of the source: active = GI50 up to about 1.1 µM and inactive = higher.

Legend:
Test in all cases: NCI-60 cell line screen, 48 h
[1] = test system: SNB-78
[2] = test system: KM12
[3] = test system: OVCAR-3
[4] = test system: DLD-1
[5] = test system: SK-OV-3
[6] = test system: NCI-H460
[7] = test system: Malme-3M
[8] = test system: UACC-257
[9] = test system: COLO 205
[10] = test system: SNB-19
[11] = test system: HCC 2998
[12] = test system: RPMI-8226
[13] = test system: NCI-H23
[14] = test system: A498
[15] = test system: RXF 393
[16] = test system: UACC-62
[17] = test system: SK-MEL-5
[18] = test system: OVCAR-4
[19] = test system: OVCAR-8
[20] = test system: SW-620
[21] = test system: A549
[22] = test system: HCT-15
[23] = test system: HT-29
[24] = test system: EKVX
[25] = test system: NCI-H226
[26] = test system: SN12C
[27] = test system: NCI-H522
[28] = test system: SK-MEL-2
[29] = test system: OVCAR-5
[30] = test system: HOP-92
[31] = test system: U-251
[32] = test system: LOX IMVI
[33] = test system: HOP-62
[34] = test system: SF-295
[35] = test system: LXFL 529
[36] = test system: DMS-114
[37] = test system: CAKI-1
[38] = test system: MOLT-4
[39] = test system: SK-MEL-28
[40] = test system: K562
[41] = test system: SR
[42] = test system: UO-31
[43] = test system: CCRF-CEM
[44] = test system: M14
[45] = test system: 786-0
[46] = test system: HCT-116
[47] = test system: SF-539
[48] = test system: SF-268
[49] = test system: ACHN
[50] = test system: IGROV-1
[51] = test system: TK-10
[52] = test system: SNB-75
[53] = test system: KM-20L2
[54] = test system: HL-60
[55] = test system: M19-MEL

Q: Which GI50 [1] does the source give for O=C(Nc1cccc([N+](=O)[O-])c1)/C(=N\NC(=O)c1ccncc1)c1nc2ccc([N+](=O)[O-])cc2nc1O here?
A: > 100 µM (inactive)

Q: And the GI50 [2]?
A: 42.2 µM (inactive)

Q: What about the GI50 [3] of the same compound?
A: > 100 µM (inactive)

Q: And the GI50 [4]?
A: > 10 µM (inactive)

Q: And the GI50 [5]?
A: > 100 µM (inactive)

Q: What about the GI50 [6] of the same compound?
A: 54 µM (inactive)

Q: What about the GI50 [7] of the same compound?
A: > 100 µM (inactive)

Q: What about the GI50 [8] of the same compound?
A: 46.7 µM (inactive)

Q: And the GI50 [9]?
A: > 100 µM (inactive)

Q: What about the GI50 [10] of the same compound?
A: > 100 µM (inactive)

Q: What about the GI50 [11] of the same compound?
A: 35.4 µM (inactive)

Q: And the GI50 [12]?
A: 49.4 µM (inactive)

Q: And the GI50 [13]?
A: 68.1 µM (inactive)

Q: And the GI50 [14]?
A: > 100 µM (inactive)

Q: And the GI50 [15]?
A: 60 µM (inactive)

Q: And the GI50 [16]?
A: 58.7 µM (inactive)

Q: What about the GI50 [17] of the same compound?
A: 38 µM (inactive)

Q: And the GI50 [18]?
A: > 100 µM (inactive)

Q: What about the GI50 [19] of the same compound?
A: 50.1 µM (inactive)

Q: What about the GI50 [20] of the same compound?
A: 77.3 µM (inactive)

Q: What about the GI50 [21] of the same compound?
A: 39.5 µM (inactive)

Q: And the GI50 [22]?
A: 35 µM

Q: And the GI50 [23]?
A: 74.1 µM (inactive)

Q: What about the GI50 [24] of the same compound?
A: 38 µM (inactive)

Q: What about the GI50 [25] of the same compound?
A: 42.4 µM (inactive)

Q: And the GI50 [26]?
A: > 100 µM (inactive)

Q: What about the GI50 [27] of the same compound?
A: 8.59 µM (inactive)

Q: And the GI50 [28]?
A: > 100 µM (inactive)

Q: What about the GI50 [29] of the same compound?
A: 77.3 µM (inactive)

Q: What about the GI50 [30] of the same compound?
A: 12.4 µM (inactive)

Q: And the GI50 [31]?
A: 71.3 µM (inactive)

Q: What about the GI50 [32] of the same compound?
A: 27.6 µM (inactive)

Q: What about the GI50 [33] of the same compound?
A: 70 µM (inactive)

Q: What about the GI50 [34] of the same compound?
A: 33.8 µM (inactive)

Q: What about the GI50 [35] of the same compound?
A: 35.6 µM (inactive)

Q: What about the GI50 [36] of the same compound?
A: 13.9 µM (inactive)

Q: What about the GI50 [37] of the same compound?
A: 38.6 µM (inactive)

Q: And the GI50 [38]?
A: 46.9 µM (inactive)

Q: And the GI50 [39]?
A: 29.2 µM (inactive)

Q: And the GI50 [40]?
A: 21.5 µM (inactive)

Q: And the GI50 [41]?
A: 42.7 µM (inactive)

Q: What about the GI50 [42] of the same compound?
A: 21.9 µM (inactive)

Q: And the GI50 [43]?
A: 14.7 µM (inactive)

Q: What about the GI50 [44] of the same compound?
A: > 100 µM (inactive)

Q: And the GI50 [45]?
A: > 100 µM (inactive)

Q: What about the GI50 [46] of the same compound?
A: 84.3 µM (inactive)

Q: And the GI50 [47]?
A: 32.8 µM (inactive)

Q: And the GI50 [48]?
A: 40.7 µM (inactive)

Q: What about the GI50 [49] of the same compound?
A: 19.7 µM (inactive)

Q: And the GI50 [50]?
A: > 100 µM (inactive)

Q: Which GI50 [2] does the source give for COC(=O)/C(=N\NC(C)(C)C)C(C(=O)C(=O)Nc1cc(C)ccc1C)c1nc2ccccc2nc1O (stereo not drawn) here?
A: > 100 µM (inactive)

Q: What about the GI50 [4] of the same compound?
A: > 100 µM (inactive)

Q: And the GI50 [51]?
A: > 100 µM (inactive)

Q: What about the GI50 [8] of the same compound?
A: > 100 µM (inactive)

Q: What about the GI50 [9] of the same compound?
A: > 100 µM (inactive)

Q: And the GI50 [10]?
A: > 100 µM (inactive)

Q: What about the GI50 [12] of the same compound?
A: > 100 µM (inactive)

Q: And the GI50 [13]?
A: > 100 µM (inactive)

Q: What about the GI50 [14] of the same compound?
A: > 100 µM (inactive)

Q: And the GI50 [16]?
A: > 100 µM (inactive)

Q: And the GI50 [17]?
A: > 100 µM (inactive)

Q: And the GI50 [18]?
A: > 100 µM (inactive)

Q: And the GI50 [19]?
A: > 100 µM (inactive)

Q: And the GI50 [20]?
A: > 100 µM (inactive)

Q: And the GI50 [23]?
A: > 100 µM (inactive)

Q: And the GI50 [52]?
A: > 100 µM (inactive)

Q: And the GI50 [24]?
A: > 100 µM (inactive)

Q: And the GI50 [25]?
A: > 100 µM (inactive)

Q: And the GI50 [26]?
A: > 100 µM (inactive)

Q: And the GI50 [29]?
A: > 100 µM (inactive)

Q: What about the GI50 [53] of the same compound?
A: > 100 µM (inactive)

Q: What about the GI50 [30] of the same compound?
A: > 100 µM (inactive)

Q: What about the GI50 [32] of the same compound?
A: > 100 µM (inactive)

Q: What about the GI50 [33] of the same compound?
A: > 100 µM (inactive)

Q: And the GI50 [34]?
A: > 100 µM (inactive)

Q: What about the GI50 [37] of the same compound?
A: > 100 µM (inactive)

Q: And the GI50 [38]?
A: > 100 µM (inactive)

Q: What about the GI50 [40] of the same compound?
A: > 100 µM (inactive)

Q: What about the GI50 [41] of the same compound?
A: > 100 µM (inactive)

Q: And the GI50 [54]?
A: > 100 µM (inactive)

Q: What about the GI50 [43] of the same compound?
A: > 100 µM (inactive)

Q: And the GI50 [47]?
A: > 100 µM (inactive)

Q: What about the GI50 [49] of the same compound?
A: > 100 µM (inactive)

Q: And the GI50 [50]?
A: > 100 µM (inactive)

Q: O=C(NC(=O)c1cn(CCN2CCNCC2)c(=O)[nH]c1=O)OCc1ccccc1 was tested. Which GI50 [1] did it give?
A: > 100 µM (inactive)

Q: What about the GI50 [2] of the same compound?
A: > 100 µM (inactive)

Q: And the GI50 [3]?
A: > 100 µM (inactive)

Q: What about the GI50 [4] of the same compound?
A: > 100 µM (inactive)

Q: And the GI50 [5]?
A: > 100 µM (inactive)

Q: What about the GI50 [6] of the same compound?
A: > 100 µM (inactive)

Q: What about the GI50 [7] of the same compound?
A: > 100 µM (inactive)

Q: What about the GI50 [9] of the same compound?
A: > 100 µM (inactive)

Q: And the GI50 [12]?
A: > 100 µM (inactive)

Q: And the GI50 [13]?
A: > 100 µM (inactive)

Q: What about the GI50 [16] of the same compound?
A: > 100 µM (inactive)

Q: And the GI50 [17]?
A: > 100 µM (inactive)

Q: What about the GI50 [18] of the same compound?
A: > 100 µM (inactive)

Q: What about the GI50 [19] of the same compound?
A: > 100 µM (inactive)

Q: And the GI50 [20]?
A: > 100 µM (inactive)

Q: And the GI50 [21]?
A: > 100 µM (inactive)

Q: What about the GI50 [55] of the same compound?
A: > 100 µM (inactive)

Q: What about the GI50 [22] of the same compound?
A: > 100 µM

Q: What about the GI50 [23] of the same compound?
A: > 100 µM (inactive)

Q: And the GI50 [52]?
A: 68.9 µM (inactive)

Q: What about the GI50 [24] of the same compound?
A: > 100 µM (inactive)

Q: And the GI50 [25]?
A: > 100 µM (inactive)

Q: What about the GI50 [26] of the same compound?
A: > 100 µM (inactive)

Q: And the GI50 [27]?
A: > 100 µM (inactive)

Q: And the GI50 [29]?
A: > 100 µM (inactive)

Q: What about the GI50 [30] of the same compound?
A: > 100 µM (inactive)

Q: And the GI50 [31]?
A: > 100 µM (inactive)

Q: And the GI50 [32]?
A: > 100 µM (inactive)

Q: And the GI50 [33]?
A: > 100 µM (inactive)

Q: And the GI50 [34]?
A: > 100 µM (inactive)

Q: And the GI50 [35]?
A: > 100 µM (inactive)

Q: And the GI50 [36]?
A: 63.5 µM (inactive)

Q: And the GI50 [37]?
A: > 100 µM (inactive)

Q: And the GI50 [38]?
A: > 100 µM (inactive)

Q: What about the GI50 [40] of the same compound?
A: > 100 µM (inactive)

Q: What about the GI50 [41] of the same compound?
A: > 100 µM (inactive)

Q: What about the GI50 [54] of the same compound?
A: > 100 µM (inactive)

Q: What about the GI50 [43] of the same compound?
A: > 100 µM (inactive)

Q: And the GI50 [44]?
A: > 100 µM (inactive)

Q: And the GI50 [46]?
A: > 100 µM (inactive)

Q: What about the GI50 [47] of the same compound?
A: > 100 µM (inactive)

Q: And the GI50 [48]?
A: > 100 µM (inactive)

Q: What about the GI50 [49] of the same compound?
A: > 100 µM (inactive)

Q: And the GI50 [50]?
A: > 10 µM (inactive)
